The subject of data set [1] is pro-inflammatory cytokines. Briefly: Serum cytokine analysis in MC38 tumor-bearing mice. Type of data set: in vivo. The following applies: i.t. on a TLR7 equimolar basis; 6 hours after injection; vs PBS or vehicle control. As for the experimental part: As a comparison, other mice were injected with TLR7/8 agonist telratolimod (3M-052, MedChemExpress, cat. no. HY-109104) in 10% DMSO, 40% PEG300 (Sigma Aldrich, cat. no. 8.07484), and 5% Tween-80 in PBS (Sigma Aldrich, cat. no. P8074) (with additional vehicle control mice). Six hours after injection, plasma was collected via submandibular bleed and analyzed for pro-inflammatory cytokines using LEGENDplex Mouse Inflammation Panel Assay (BioLegend, cat. no. 740446).

For another data set, the system named is RAW 264.7 macrophages. Briefly: Cytotoxicity to RAW 264.7 macrophages (Zombie Aqua viability dye). In kind it is cell-based. As to conditions: 24 hours after treatment; vs media alone.
Data set [2] in a line: In vivo polymer biodistribution (tissue homogenate fluorescence). As to conditions: cytarabine one day before polymer i.v.
Text: To achieve this, they inoculated normal B6 mice with C1498. After one day, one group of mice received a dose of cytarabine. […] Eight hours after this injection, mice were sacrificed, and tissues were harvested for homogenization and subsequent fluorescence quantification using a microplate reader. Fluorescence values were normalized per mg of tissue.
For a further data set, the system named is C1498 cells. Briefly: In vitro cancer cell binding of dye-labeled polymer to AML cells.

SMILES strings stand for the structures.

Text for C1498 cells: Flow cytometric analysis of dye labeled PDS-containing polymers binding to C1498 cells in a (A) polymer dose-dependent manner.
They also investigated the effect of cytarabine pre-treatment on polymer binding, both in a dose and time dependent manner.

In the case of `CCCCCCCCCCCCCCCCCC(=O)NCCCCOn1c(CCCC)nc2c(N)nc3ccccc3c21` [3M-052], the “systemic inflammatory cytokines (IFN-γ, IL-6, MCP-1, IFN-β, IL-27)” value in data set [1] is reported as “produced significant upregulation”.
As for `CCOCc1nc2c(N)nc3ccccc3c2n1CC(C)(C)O` [R848], the “live cells as a percent of total cells” value in the data set on RAW 264.7 macrophages is recorded as “no significant change from the media alone control wells”.
As for `Nc1ccn([C@@H]2O[C@H](CO)[C@@H](O)[C@@H]2O)c(=O)n1` [cytarabine], the “effect of cytarabine pre-treatment on tissue biodistribution of polymer” value in data set [2] is reported as “does not significantly alter the tissue biodistribution of polymer”. Also, the “efficiency of polymer binding to C1498 cells after cytarabine pre-treatment (duration)” value in the data set with C1498 cells (cytarabine given too far from polymer treatment) was “decreases binding efficiency of PDS-containing polymers”. In the data set with C1498 cells (cytarabine pre-treatment for 4 hours), the “efficiency of polymer binding to C1498 cells after cytarabine pre-treatment (dose)” value is “increased the efficiency of polymer binding in a dose-dependent manner”.

The values are drawn from patent US20260053935A1, “METHODS AND COMPOSITIONS FOR TREATING CANCER WITH CANCER-BINDING ADJUVANTS” (THE UNIVERSITY OF CHICAGO, priority 2022, published 2026).
